Measurements as given in patent US20230203060A1 (GENFLEET THERAPEUTICS (SHANGHAI) INC., priority 2020, published 2023).

Target: T1, KRAS G12C (Homo sapiens, UniProt P01116, G12C)
T1 construct: purchased Reactionbiology
Assay: KRAS G12C NEA-HTRF experiment (SOS1-catalyzed displacement of GDP by GTP)
Format: biochemical
Outline: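 His-tagged KRAS G12C preloaded with DY647-GDP was preincubated 15 min at 20 °C with compound, then exchanged with SOS1 (0.2 μM working solution) and GTP (200 μM working solution) for 2 h at 20 °C in the dark. HTRF 665/615 nm ratio with anti-His-Tb was normalised to T0 and no-compound controls; IC50 by four-parameter fit.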

T1 sequence (P01116 1-188 isoform P01116-2 G12C): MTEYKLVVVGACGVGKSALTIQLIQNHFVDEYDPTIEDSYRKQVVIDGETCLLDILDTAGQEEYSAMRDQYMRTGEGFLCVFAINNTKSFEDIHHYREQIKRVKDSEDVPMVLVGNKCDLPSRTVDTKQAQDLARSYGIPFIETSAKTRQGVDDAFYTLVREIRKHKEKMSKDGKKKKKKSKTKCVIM

| SMILES | IC50 [nM] |
| --- | --- |
| C=CC(=O)N1CCN2C(=O)c3c(N4CCC(O)C4(C)C)nc(-c4c(O)cccc4F)c(Cl)c3OC[C@H]2C1 (stereo partly drawn) [Z241, (6aR)-8-acryloyl-1-(3-hydroxy-2,2-dimethylpyrrolidin-1-yl)-4-chloro-3-(2-fluoro-6-hydroxyphenyl)-6,6a,7,8,9,10-hexahydro-12H-pyrazino[2,1-c]pyrido[3,4-f][1,4]oxazepin-12-one] | 18 |
| C=CC(=O)N1CCN2C(=O)c3c(N4CC(N(C)C5COC5)CC4(C)C)nc(-c4c(O)cccc4F)c(Cl)c3OC[C@H]2C1 (stereo partly drawn) [Z326, (6aR)-8-acryloyl-4-chloro-1-(2,2-dimethyl-4-(methyl(oxetan-3-yl)amino)pyrrolidin-1-yl)-3-(2-fluoro-6-hydroxyphenyl)-6,6a,7,8,9,10-hexahydro-12H-pyrazino[2,1-c]pyrido[3,4-f][1,4]oxazepin-12-one] | 8 |
| C=CC(=O)N1CCN2C(=O)c3c(N4CC(N5CCOCC5)CC4(C)C)nc(-c4c(O)cccc4F)c(Cl)c3OC[C@H]2C1 (stereo partly drawn) [Z344, (6aR)-8-acryloyl-4-chloro-1-((2,2-dimethyl-4-morpholinopyrrolidin-1-yl))-3-(2-fluoro-6-hydroxyphenyl)-6,6a,7,8,9,10-hexahydro-12H-pyrazino[2,1-c]pyrido[3,4-f][1,4]oxazepin-12-one] | 10 |
| C=CC(=O)N1CCN2C(=O)c3c(N4C[C@@H](OC)C[C@@H]4C)nc(-c4c(O)cccc4F)c(Cl)c3OC[C@H]2C1 [Z260a, (6aR)-8-acryloyl-4-chloro-3-(2-fluoro-6-hydroxyphenyl)-1-((2S,4S)-4-methoxy-2-methylpyrrolidin-1-yl)-6,6a,7,8,9,10-hexahydro-12H-pyrazino[2,1-c]pyrido[3,4-f][1,4]oxazepin-12-one] | 27 |
| C=CC(=O)N1CCN2C(=O)c3c(N4C[C@@](C)(O)CC4(C)C)nc(-c4c(O)cccc4F)c(Cl)c3OC[C@H]2C1 (single isomer, unassigned) [Z243-1] | 7 |
| C=CC(=O)N1CCN2C(=O)c3c(N4C[C@H](OC)CC4(C)C)nc(-c4c(O)cccc4F)c(Cl)c3OC[C@H]2C1 (single isomer, unassigned) [Z244-2] | 5 |
| C=CC(=O)N1CCN2C(=O)c3c(N4C[C@H](N(C)CCOC)CC4(C)C)nc(-c4c(O)cccc4F)c(Cl)c3OC[C@H]2C1 (single isomer, unassigned) [Z296-2] | 39 |
| C=CC(=O)N1CCN2C(=O)c3c(N4CCCC4(C)C)nc(-c4c(O)cccc4F)c(Cl)c3OC[C@H]2C1 [Z22, (6aR)-8-acryloyl-4-chloro-1-(2,2-dimethylpyrrolidin-1-yl)-3-(2-fluoro-6-hydroxyphenyl)-6,6a,7,8,9,10-hexahydro-12H-pyrazino[2,1-c]pyrido[3,4-f][1,4]oxazepin-12-one] | 20 |
| C=CC(=O)N1CCN2C(=O)c3c(N4CC[C@H](OC)[C@@H]4C)nc(-c4c(O)cccc4F)c(Cl)c3OC[C@H]2C1 [Z347-1, (6aR)-8-acryloyl-4-chloro-3-(2-fluoro-6-hydroxyphenyl)-1-((2S,3S)-3-methoxy-2-methylpyrrolidin-1-yl)-6,6a,7,8,9,10-hexahydro-12H-pyrazino[2,1-c]pyrido[3,4-f][1,4]oxazepin-12-one] | 12 |
| C=CC(=O)N1CCN2C(=O)c3c(N4CCN(C)[C@H](C)[C@@H]4C)nc(-c4c(O)cccc4F)c(Cl)c3OC[C@H]2C1 (single isomer, unassigned) [Z308a-1] | 58 |
| C=CC(=O)N1CCN2C(=O)c3c(N4C[C@H](N5CCOCC5)CC4(C)C)nc(-c4c(O)cccc4F)c(Cl)c3OC[C@H]2C1 (single isomer, unassigned) [Z297-1] | 19 |
| C=CC(=O)N1CCN2C(=O)c3c(N4C[C@H](OC)CC4(C)C)nc(-c4c(O)cccc4F)c(F)c3OC[C@H]2C1 (single isomer, unassigned) [Z256a-2] | 18 |
| C=CC(=O)N1CCN2C(=O)c3c(N4C[C@H](O)CC4(C)C)nc(-c4c(O)ccc(Cl)c4F)c(F)c3OC[C@H]2C1 (single isomer, unassigned) [Z340-2] | 98 |
| C=CC(=O)N1CCN2C(=O)c3c(N4C[C@@H](N(C)CCOC)C[C@@H]4C)nc(-c4c(O)cccc4F)c(Cl)c3OC[C@H]2C1 [Z358-1] | 26.4 |
| C=CC(=O)N1CCN2C(=O)c3c(N4C[C@H](N(C)C)CC4(C)C)nc(-c4c(O)cccc4F)c(Cl)c3OC[C@H]2C1 (single isomer, unassigned) [Z324-2] | 61 |
| C=CC(=O)N1CCN2C(=O)c3c(N4CC(OC)CC4(C)C)nc(-c4c(O)cccc4F)c(Cl)c3OC[C@H]2C1 (stereo partly drawn) [Z244, (6aR)-8-acryloyl-4-chloro-3-(2-fluoro-6-hydroxyphenyl)-1-(4-methoxy-2,2-dimethylpyrrolidin-1-yl)-12-oxo-6,6a,7,8,9,10-hexahydro-12H-pyrazino[2,1-c]pyrido[3,4-f][1,4]oxazepin-12-one] | 47 |

| SMILES | IC50 [nM] |
| --- | --- |
| C=CC(=O)N1CCN2C(=O)c3c(N4CCN(C5COC5)C[C@@H]4C)nc(-c4c(O)cccc4F)c(Cl)c3OC[C@H]2C1 (single isomer, unassigned) [Z239-1] | 124 |
| C=CC(=O)N1CCN2C(=O)c3c(N4C[C@@H](N(C)C)C[C@@H]4C)nc(-c4c(O)cccc4F)c(Cl)c3OC[C@H]2C1 [Z237-2, (6aR)-8-acryloyl-4-chloro-1-((2S,4S)-4-(dimethylamino)-2-methylpyrrolidin-1-yl)-3-(2-fluoro-6-hydroxyphenyl)-6,6a,7,8,9,10-hexahydro-12H-pyrazino[2,1-c]pyrido[3,4-f][1,4]oxazepin-12-one] | 65 |
| C=CC(=O)N1CCN2C(=O)c3c(N4C[C@@H](O)CC4(C)C)nc(-c4c(F)ccc(F)c4O)c(F)c3OC[C@H]2C1 (single isomer, unassigned) [Z449-1] | 31 |
| C=CC(=O)N1CCN2C(=O)c3c(N4C[C@H](N(C)C)C[C@@H]4C)nc(-c4c(O)cccc4F)c(Cl)c3OC[C@H]2C1 [Z237-1, (6aR)-8-acryloyl-4-chloro-1-((2S,4R)-4-(dimethylamino)-2-methylpyrrolidin-1-yl)-3-(2-fluoro-6-hydroxyphenyl)-6,6a,7,8,9,10-hexahydro-12H-pyrazino[2,1-c]pyrido[3,4-f][1,4]oxazepin-12-one] | 122 |
| C=CC(=O)N1CCN2C(=O)c3c(N4CC[C@H](OC)C4(C)C)nc(-c4c(O)cccc4F)c(F)c3OC[C@H]2C1 (single isomer, unassigned) [Z327-2] | 64 |
| C=CC(=O)N1CCN2C(=O)c3c(N4C[C@H](O)CC4(C)C)nc(-c4ccccc4F)c(Cl)c3OC[C@H]2C1 (single isomer, unassigned) [Z325-2] | 35 |
| C=CC(=O)N1CCN2C(=O)c3c(N4C[C@H](OC)C[C@@H]4C)nc(-c4c(O)cccc4F)c(Cl)c3OC[C@H]2C1 [Z259a, (6aR)-8-acryloyl-4-chloro-3-(2-fluoro-6-hydroxyphenyl)-1-((2S,4R)-4-methoxy-2-methylpyrrolidin-1-yl)-6,6a,7,8,9,10-hexahydro-12H-pyrazino[2,1-c]pyrido[3,4-f][1,4]oxazepin-12-one] | 26 |
| C=CC(=O)N1CCN2C(=O)c3c(N4C[C@](C)(O)CC4(C)C)nc(-c4c(O)cccc4F)c(Cl)c3OC[C@H]2C1 (single isomer, unassigned) [Z243-2] | 76 |
| C=CC(=O)N1CCN2C(=O)c3c(N4CCN(C)C(=O)[C@@H]4C)nc(-c4c(O)cccc4F)c(Cl)c3OC[C@H]2C1 [Z311-1, (6aR)-8-actyloyl-4-chloro-1-((S)-2,4-dimethyl-3-oxopiperazin-1-yl)-3-(2-fluoro-6-hydroxyphenyl)-6,6a,7,8,9,10-hexahydro-12H-pyrazino[2,1-c]pyrido[3,4-f][1,4]oxazepin-12-one] | 34 |
| C=CC(=O)N1CCN2C(=O)c3c(N4CC(C#N)CC4(C)C)nc(-c4c(O)cccc4F)c(Cl)c3OC[C@H]2C1 (stereo partly drawn) [Z275, (6aR)-8-acryloyl-1-(4-cyano-2,2-dimethylpyrrolidin-1-yl)-4-chloro-3-(2-fluoro-6-hydroxyphenyl)-6,6a,7,8,9,10-hexahydro-12H-pyrazino[2,1-c]pyrido[3,4-f][1,4]oxazepin-12-one] | 21 |
| C=CC(=O)N1CCN2C(=O)c3c(N4CCN(C)C[C@@H]4C)nc(-c4c(F)ccc(F)c4O)c(Cl)c3OC[C@H]2C1 [Z356, (6aR)-8-acryloyl-4-chloro-3-(3,6-difluoro-2-hydroxyphenyl)-1-((S)-2,4-dimethylpiperazin-1-yl)-6,6a,7,8,9,10-hexahydro-12H-pyrazino[2,1-c]pyrido[3,4-f][1,4]oxazepin-12-one] | 161 |
| C=CC(=O)N1CCN2C(=O)c3c(N4CCN(S(C)(=O)=O)C[C@@H]4C)nc(-c4c(O)cccc4F)c(Cl)c3OC[C@H]2C1 [Z318-1, (6aR)-8-acryloyl-1-((S)-2-methyl-4-(methylsulfonyl)piperazin-1-yl)-4-chloro-3-(2-fluoro-6-hydroxyphenyl)-6,6a,7,8,9,10-hexahydro-12H-pyrazino[2,1-c]pyrido[3,4-f][1,4]oxazepin-12-one] | 37 |
| C=CC(=O)N1CCN2C(=O)c3c(N4CC(C#N)CC4(C)C)nc(-c4c(O)cccc4F)c(F)c3OC[C@H]2C1 (stereo partly shown) [Z335] | 78 |
| C=CC(=O)N1CCN2C(=O)c3c(N4CCN(CCOC)C(C)(C)C4)nc(-c4c(O)cccc4F)c(Cl)c3OC[C@H]2C1 [Z321, (6aR)-8-acryloyl-4-chloro-3-(2-fluoro-6-hydroxyphenyl)-1-(4-(2-methoxyethyl)-3,3-dimethylpiperazin-1-yl)-6,6a,7,8,9,10-hexahydro-12H-pyrazino[2,1-c]pyrido[3,4-f][1,4]oxazepin-12-one] | 78 |
| C=CC(=O)N1CCN2C(=O)c3c(N4CC(CO)CC4(C)C)nc(-c4c(O)cccc4F)c(Cl)c3OC[C@H]2C1 (stereo partly drawn) [Z240, (6aR)-8-acryloyl-4-chloro-3-(2-fluoro-6-hydroxyphenyl)-1-(4-(hydroxymethyl)-2,2-dimethylpyrrolidin-1-yl)-6,6a,7,8,9,10-hexahydro-12H-pyrazino[2,1-c]pyrido[3,4-f][1,4]oxazepin-12-one] | 10 |
